Source: patent US11959083B2, “Immunosuppression-reverting oligonucleotides inhibiting the expression of CD39” (Secarna Pharmaceuticals GmbH & Co. KG, priority 2016, dated 2024)
l = locked nucleic acid (LNA); d = 2'-deoxy (DNA)

Experiments:
mCD39 mRNA [1] = assay: mCD39 mRNA knockdown efficacy screen in A20 cells (single dose, gymnotic delivery, QuantiGene Singleplex); assay type: cell-based, mouse; details: 10 μM, three days, normalized to HPRT1
Method: FIG. 14-1 and 14-2 show mCD39 mRNA knockdown efficacy of mCD39 antisense oligonucleotides in the murine cancer cell line A20 (mouse B cell lymphoma). A20 cells were treated with a single dose of 10 μM of the respective antisense oligonucleotide. As negative control, cells were treated with neg1, an antisense oligonucleotide having the sequence CGTTTAGGCTATGTACTT (SEQ ID NO:99). Residual mCD39 mRNA expression relative to untreated cells is depicted. Expression values were normalized to expression of the housekeeping gene HPRT1.
In order to analyze the efficacy of mCD39 antisense oligonucleotides with regard to the knockdown of mCD39 mRNA expression in a cancer cell line, A20 (mouse B cell lymphoma, ATCC) cells were treated with a single dose (concentration: 10 μM without addition of any transfection reagent; this process is called gymnotic delivery) of the respective antisense oligonucleotide as indicated in FIG. 14. As control, cells were treated with neg1, an antisense oligonucleotide having the sequence CGTTTAGGCTATGTACTT (SEQ ID NO:99). mCD39 and HPRT1 mRNA expression was analyzed after three days using the QuantiGene Singleplex assay (Affymetrix) and mCD39 expression values were normalized to HPRT1 expression values.

mCD39 mRNA [2] = assay: In vivo mCD39 mRNA knockdown in spleens of C57BL/6 mice; set-up: species or system mouse; details: day 26, compared to neg 1 treated mice
Method: FIGS. 15A and 15B depict CD39 mRNA expression levels in spleens from C57BL/6 mice treated by subcutaneous injections of either A04011MR or the negative control oligonucleotide neg1 at doses of 25 mg/kg or 10 mg/kg on days 1, 2, 3, 4, 5, 9, 12, 16, and 19 (5 mice/group). Expression values were normalized to expression values of the housekeeping gene HPRT1.
The potent mCD39 ASO A04011MR was selected and its in vivo knockdown capacity in C57BL/6 mice was analyzed. C57BL/6 mice were treated by subcutaneous injections of either A04011MR or the negative control oligonucleotide neg1 at doses of 25 mg/kg or 10 mg/kg on days 1, 2, 3, 4, 5, 9, 12, 16, and 19 (5 mice/group). Seven days after the last ASO treatment (day 26), mice were sacrificed and spleens were sampled for CD39 mRNA analysis. The results depicted in FIG. 15 show CD39 mRNA expression levels in spleens of A04011MR or neg1-treated mice.

mCD39 protein = assay: In vivo mCD39 protein knockdown in tumor-infiltrating immune cells, syngeneic MC38 mouse tumor model; details: MC38 tumor-bearing C57BL/6 mice, 20, 10, 5 mg/kg subcutaneous, day 16, compared to the controls
Method: FIGS. 16A and 16B show CD39 protein expression on tumor infiltrating regulatory T cells (Tregs) (FIG. 16A) and tumor associated macrophages (TAMs) (FIG. 16B) from oligonucleotide-treated mice in relation to tumors of untreated mice.
The potent mCD39 antisense oligonucleotide A04011MR was selected and its in vivo knockdown capacity in a subcutaneous syngeneic murine tumor model was analyzed. Therefore, 5×10^5 MC38 wt tumor cells were injected subcutaneously into C57BL/6 mice. Once tumors reached sizes between 50-70 mm^3, mice were treated systemically by subcutaneous injections with different doses of A04011MR (20 mg/kg; 10 mg/kg; 5 mg/kg) or with the negative control oligonucleotide neg1 (20 mg/kg) on days 1, 2, 3, 4, 5, 9, and 12 (4 mice/per group). As additional control, MC-38 tumor-bearing mice were left untreated. Four days after the last treatment with antisense oligonucleotide (day 16), tumors were isolated in order to analyze CD39 protein expression in subtypes of tumor-infiltrating immune cells using flow cytometry. FIGS. 16A and 16B depict CD39 protein expression on tumor-infiltrating regulatory T cells (Tregs) (FIG. 16A) and tumor associated macrophages (TAMs) (FIG. 16B) from oligonucleotide-treated mice in relation to tumors of untreated mice.

hCD39 mRNA [3] = assay: hCD39 mRNA knockdown efficacy screen in A-172 cells (single dose, gymnotic delivery, QuantiGene Singleplex); assay type: cell-based, human; details: 10 μM, 3 days, third screening round
Method in brief: (§1)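 Antisense oligonucleotides given once at 10 μM without transfection reagent (gymnotic) to HDLM-2 or A-172 cells for 3 days. hCD39 mRNA measured by QuantiGene Singleplex, normalized to HPRT1 and expressed relative to untreated cells; triplicate means.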

hCD39 mRNA [4] = assay: hCD39 mRNA knockdown efficacy screen in HDLM-2 cells (single dose, gymnotic delivery, QuantiGene Singleplex); assay type: cell-based, human; details: 10 μM, 3 days, third screening round
Method in brief: as §1

hCD39 protein = hCD39 protein expression in primary human CD8+ and CD4+ T cells after oligonucleotide removal (flow cytometry); assay type: cell-based; details: 10 μM for six days with anti-CD3, compared to untreated control cells
Method: Thereafter, oligonucleotides and anti-CD3 were removed and hCD39 protein expression was analyzed by flow cytometry three, six, and eleven days after oligonucleotide removal. CD39 protein expression is depicted as mean fluorescence intensity (MFI) and was calculated by subtracting the MFI of the unspecific isotype control from the MFI of CD39. Depicted is the mean of duplicate wells+/−SD.
A04040H had shown very potent activity in suppressing hCD39 expression on mRNA- and protein-level in human cancer cell lines. In the next step, its activity in primary human T cells was investigated. Furthermore, the persistence of the effects after antisense oligonucleotide removal was examined. Therefore, CD8^+ and CD4^+ T cells were isolated from peripheral blood and activated for a total treatment time of six days with anti-CD3 in the presence of 10 μM of the hCD39 specific antisense oligonucleotide A04040H (black column) or the control oligonucleotide S6 (white column), which is not complementary to any human mRNA. […] Thereafter, oligonucleotides were removed and hCD39 protein expression was analyzed three, six, and eleven days after oligonucleotide removal by flow cytometry (FIG. 9).

human CD8+ T cells = assay: Proliferation and absolute cell numbers of human CD8+ T cells in presence or absence of extracellular ATP; assay type: cell-based; details: 5 μM oligonucleotide 5 days or 20 μM ARL67156 24 h
Method: FIG. 12A-12C depict human CD8^+ T cells which were labelled with cell proliferation dye, activated with anti-CD3 and treated with 5 μM of the antisense oligonucleotide A04040H (black column) or the control oligonucleotide S6 (white column) for a total treatment time of 5 days. In the vehicle control (striped column), cells were activated with anti-CD3 only. Subsequently, 400 μM of ATP or vehicle were added to cells on day 3 and day 4 after start of oligonucleotide treatment. Furthermore, as additional control, the small molecular CD39-inhibitor ARL67156 trisodium salt was added at 20 μM to cells on day 4, for an incubation time of 24 h (checked column). On day 5 after start of oligonucleotide treatment, (FIG. 12A) CD39 protein expression, (FIG. 12B) proliferation and (FIG. 12C) absolute cell numbers of CD8^+ T cells were analyzed using Flow Cytometry. Depicted is the mean of triplicate wells+/−SD.
In cancer, ATP is released from tumor cells for example after cell death induced by chemotherapy or radiation therapy. Since the CD39-CD73 axis plays an important role for T cell function the effects of A04040H on T cell proliferation in the presence or absence of extracellular ATP were investigated. Human CD8^+ T cells were labelled with cell proliferation dye, activated with anti-CD3 and treated with 5 μM of the antisense oligonucleotide A04040H or the control oligonucleotide S6 for a total treatment time of 5 days. In the vehicle control, cells were activated with anti-CD3 only. Subsequently, 400 μM of ATP or vehicle were added to cells on day 3 and day 4 after start of oligonucleotide treatment. Furthermore, as additional control, the small molecular CD39-inhibitor ARL67156 trisodium salt was added at 20 μM to cells on day 4 for an incubation time of 24 h. On day 5 after start of oligonucleotide treatment, CD39 protein expression, proliferation, and absolute cell numbers of CD8^+ T cells were analyzed using Flow Cytometry.

hCD39 = target: T1, hCD39 (Homo sapiens, UniProt P49961); assay: ATP degradation in JIYOYE cells after hCD39 knockdown (ATP Bioluminescence Assay); assay type: cell-based; details: 5 μM oligonucleotide 6 days or 20 μM ARL67156 1 h; 2 μM ATP added
T1 construct: endogenous in cells; host or cells: JIYOYE cells
T1 sequence (P49961 1-510): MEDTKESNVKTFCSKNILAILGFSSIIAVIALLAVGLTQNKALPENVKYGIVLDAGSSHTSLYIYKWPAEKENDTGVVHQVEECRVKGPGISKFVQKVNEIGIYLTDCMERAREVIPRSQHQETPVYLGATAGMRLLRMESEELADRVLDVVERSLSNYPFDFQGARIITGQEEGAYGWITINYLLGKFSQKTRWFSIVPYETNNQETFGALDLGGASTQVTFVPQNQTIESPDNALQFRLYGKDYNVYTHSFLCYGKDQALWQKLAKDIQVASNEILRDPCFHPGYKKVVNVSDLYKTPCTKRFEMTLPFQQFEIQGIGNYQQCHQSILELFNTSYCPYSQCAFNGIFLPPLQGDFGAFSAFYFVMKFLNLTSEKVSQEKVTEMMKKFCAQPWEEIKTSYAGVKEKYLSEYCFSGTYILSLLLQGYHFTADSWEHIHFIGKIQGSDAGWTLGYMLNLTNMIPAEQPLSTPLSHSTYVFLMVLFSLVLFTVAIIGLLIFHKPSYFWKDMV
Method: FIG. 10A-10C depict effects of hCD39 knockdown on viability and ATP concentration in JIYOYE cells. JIYOYE cells were treated with the indicated antisense oligonucleotide A04040H (SEQ ID No.3) or neg1 for 6 days in total at 5 μM. Medium was replaced with fresh oligonucleotide-containing medium after 3 days and hCD39 protein knockdown efficacy was analyzed on day 6 by flow cytometry. Residual hCD39 expression and viability of oligonucleotide-treated cells is depicted compared to untreated cells (FIG. 10A-10B). After 6 days, 20 μM of the CD39 small molecular inhibitor ARL67156 trisodium salt was added to no ASO treated cells and incubated for 1 h at 37° C. Then, 2 μM of ATP was added to cells or cell culture medium without cells from each condition and ATP concentration of cell supernatants or cell culture medium was determined after 30 min using the ATP Bioluminescence Assay Kit (Roche) (FIG. 10C).
Adenosine is one major immunosuppressive molecule generated during ATP degradation by hCD39. ATP can be detected by an ATP Bioluminescence Assay (ATP Bioluminescence Assay Kit CLS II; Roche). JIYOYE cells were treated with 5 μM antisense oligonucleotide A04040H (SEQ ID No. 3) or the negative control oligonucleotide neg1 for 6 days (3+3). After 3 days, RPMI-1640 medium was replaced with fresh RPMI-1640 medium containing 5 μM of oligonucleotide. Protein knockdown efficacy (FIG. 10A) and viability (FIG. 10B) were analyzed after 6 days by flow cytometry. […] The same day, cells that were not treated with any antisense oligonucleotide were incubated for 1 hr at 37° C. with 20 μM of the CD39 small molecular inhibitor ARL67156 trisodium salt (TOCRIS). Then, 2 μM of ATP was added to cells or cell culture medium without cells derived from each condition and ATP concentration was measured in the cell supernatants or in cell culture medium after 30 min. […] Table 14 presents the effect of hCD39 knockdown on relative ATP levels in the cell culture supernatants of JIYOYE cells: […]

[5] = absence of extracellular ATP, vs vehicle
[6] = supplementation with 400 μM of ATP

| Molecule | Relative mCD39 mRNA expression (compared to non-treated cells) (mCD39 mRNA [1]) | mCD39 mRNA levels in spleens (mCD39 mRNA [2]; 10 mg/kg subcutaneous) | mCD39 mRNA levels in spleens (mCD39 mRNA [2]; 25 mg/kg subcutaneous) | mCD39 protein expression on tumor associated macrophages (TAMs) (mCD39 protein) | mCD39 protein expression on tumor-infiltrating regulatory T cells (Tregs) (mCD39 protein) | Residual hCD39 mRNA expression relative to untreated cells (set as 1) (hCD39 mRNA [3]) | Residual hCD39 mRNA expression relative to untreated cells (set as 1) (hCD39 mRNA [4]) | hCD39 protein expression (MFI) after oligonucleotide removal (hCD39 protein) | absolute cell numbers of CD8+ T cells (human CD8+ T cells; [5]) | proliferation of CD8+ T cells (human CD8+ T cells; [5]) | absolute numbers of CD8+ T cells (human CD8+ T cells; [6]) | proliferation of CD8+ T cells (human CD8+ T cells; [6]) | Relative ATP levels in supernatants of JIYOYE cells 30 minutes after addition of ATP (vs. Medium control) (hCD39) |
| --- | --- | --- | --- | --- | --- | --- | --- | --- | --- | --- | --- | --- | --- |
| +A*+G*+T*A*A*T*C*C*A*C*C*C*A*+T*+A*+G (antisense AGTAATCCACCCATAG; sugars from the 5' end l3 d10 l3, all phosphorothioate, methylation of C not given here) [A04011MR] | 0.01 | significantly reduced | significantly reduced | dose-dependently suppressed | dose-dependently suppressed | – | – | – | – | – | – | – | – |
| +T*+C*+T*A*T*C*G*T*G*A*T*G*T*T*+T*+C*+T (antisense TCTATCGTGATGTTTCT; sugars from the 5' end l3 d11 l3, all phosphorothioate, methylation of C not given here) [S6] | – | – | – | – | – | 0.95 | 0.95 | no inhibitory effect | no differences | no differences | significantly diminished | reduced proliferation | – |
| CCN(CC)c1ncnc2c1ncn2[C@@H]1O[C@H](COP(=O)(O)OP(=O)(O)C(Br)(Br)P(=O)(O)O)[C@@H](O)[C@H]1O [ARL67156] | – | – | – | – | – | – | – | – | no differences | no differences | significantly diminished | reduced proliferation | 0.38 |
